Columns and labels:
Type in all cases: cell-based, human
[1] = system: HOC/ADR (sub-line resistant to Adriamycin, A2780/ADR); experiment: Cytotoxic activity, 2D, resazurin, 72 h; conditions: for IC50 / IC10: Homo sapiens, A2780 ADR, 72 h; for IC50: read-out: HOC/ADR IC50; for IC10: read-out: IC10 of compounds; for SI HEK293/HOC/ADR: IC50 HEK293 / IC50 HOC/ADR; for CS (collateral sensitivity index): IC50 HOC / IC50 HOC/ADR
Experimental: (§1) The cytotoxic potential of selenoesters was tested on several cancer cell lines—HOC (human parental ovarian adenocarcinoma, HOC, A2780, Sigma-Aldrich), HOC/ADR (sub-line resistant to Adriamycin, A2780/ADR, Sigma-Aldrich), MCF-7 (human breast adenocarcinoma, ATCC®, HTB-22TM), MCF-7/PAX (resistant sub-line established by gradual adaptation of parental cells to increased concentration of paclitaxel; kindly provided by Division of Cell and Molecular Biology, Third Faculty of Medicine, Charles University, Czech Republic) and on one non-cancerous cell line—HEK293 (human embryonic kidney cell line, Leibniz Institute, DSMZ-German Collection of Microorganisms and Cell Cultures GmbH). All mentioned cell lines were authenticated using short tandem repeat (STR) profiling. Cell lines were cultivated in DMEM medium (10% FBS, 1× antibiotic antimycotic solution), except for HEK293 cell line which was cultivated without antibiotics. In case of the resistant cell lines, the medium was supplemented with a required concentration of cytostatics to maintain resistance (HOC/ADR—100 nM Adriamycin; MCF-7/PAX—300 nM paclitaxel). All cells were cultivated in a CO2 incubator (5% CO2, 37 °C, Thermo Fisher Scientific).
(§2) For the experiment, the cells at passage number 5–20 were seeded at a 1 × 10^5 cells/mL concentration into 96-well plates to 100 µL final volume. The final concentration range of the compounds was 0.63–20 µM. After an incubation of 72 h, the plates were washed 1× with PBS and resazurin solution (0.03 mg/mL in 1× PBS) was added. After 1 h of incubation, the fluorescence signal was recorded (ex./em. 560/590 nm).
(§3) The selectivity index (SI) was determined as the ratio of IC50 value for the non-cancerous cells to IC50 for the cancer cell line. For resistant cell lines, the collateral sensitivity (CS) was calculated as the ratio of IC50 value in sensitive tumour cells to IC50 in the resistant cancer cell line. In both cases, the selectivity is considered as: (1) strongly selective when SI or CS value is above 6, (2) moderately selective when SI or CS is between 3 and 6, (3) slightly selective when SI or CS is between 1 and 3 and (4) non-selective when SI or CS is less than 1[23].

[2] = system: MCF-7/PAX (paclitaxel-resistant sub-line); experiment: Cytotoxic activity, 2D, resazurin, 72 h; conditions: for IC50: Homo sapiens, MCF7, 72 h, read-out: MCF-7/PAX IC50; for SI HEK293/MC7-7/PAX: IC50 HEK293 / IC50 MCF-7/PAX; for CS (collateral sensitivity index): IC50 MCF-7 / IC50 MCF-7/PAX; for IC10 of compounds: MCF-7/PAX
Experimental: as §1, §2, §3

[3] = system: MCF-7/PAX spheroids; experiment: Sensitization of resistant 3D spheroids to paclitaxel; conditions: paclitaxel IC50 / paclitaxel + selenoester IC50; K3 3 µM, K4 3 µM, K7 5 µM; 72 h
Experimental: In the previous section, the cytotoxic activity of selenoesters was determined against several 3D models of sensitive and resistant cell lines. Subsequently, the selenoesters were tested for their potential to sensitize the drug-resistant HOC/ADR and MCF-7/PAX spheroids. Mature 72 h old spheroids were incubated with the non-toxic concentration of selenoesters with Adriamycin or paclitaxel (concentration range 0.6–80 µM) for HOC/ADR or MCF-7/PAX, respectively (Table 8). After another 72 h incubation, the sensitization rate (fold change) was evaluated. […] The highest sensitization rate of ovarian spheroids (HOC/ADR) was induced by 5 µM K4, followed by 5 µM K7, and 3 µM K3.
To determine the sensitization potential of compounds, HOC/ADR and MCF-7/PAX were seeded into the ultra-low attachment 96-well plates (Sigma-Aldrich) at a cell density 0.5 × 10^5 cells/mL. After 3 days of spheroid formation, spheroids were carefully washed once with PBS and fresh DMEM medium (99 µL) containing the appropriate concentration of compounds K3, K4, K7 was added. Using a binary serial compound dilution, the concentration range of both cytostatics was prepared in the new 96-well plates (0.06–8 mM). After 1 µL transfer of cytostatics into the corresponding cell line, the final concentration range were 0.6–80 µM. The required volume of DMSO (1% V/V) was added to the positive control. After an incubation of 72 h, 100 µL of CellTiter-Glo 3D Reagent (Promega) was added to each well. Plates with spheroids were incubated for 25 min at room temperature. Afterwards, the luminescent signal was recorded.

| Structure (SMILES) | IC50 [1] | IC10 [1] | SI HEK293/HOC/ADR [1] | CS (collateral sensitivity index) [1] | IC50 [2] | SI HEK293/MC7-7/PAX [2] | CS (collateral sensitivity index) [2] | IC10 of compounds [2] | MCF-7/PAX Fold change (3D) [3] |
| --- | --- | --- | --- | --- | --- | --- | --- | --- | --- |
| CC(=O)C[Se]C(=O)c1ccc(Br)cc1 [K3] | 2600 ± 100 nM | 2000 nM | 0.9 ± 0.0 | 0.7 ± 0.1 | 2100 ± 100 nM | 1.1 ± 0.1 | 1.0 ± 0.3 | 1200 nM | (0.9 ± 0.0)× |
| CC(=O)C[Se]C(=O)c1ccccc1C(F)(F)F [K4] | 3600 ± 100 nM | 2900 nM | 1.5 ± 0.2 | 0.6 ± 0.0 | 3300 ± 300 nM | 1.6 ± 0.2 | 0.6 ± 0.0 | 1800 nM | (1.0 ± 0.1)× |
| CC(=O)C[Se]C(=O)c1ccc(C(C)(C)C)cc1 [K7] | 3100 ± 300 nM | 1800 nM | 0.5 ± 0.1 | 0.4 ± 0.1 | 2400 ± 100 nM | 0.6 ± 0.1 | 0.8 ± 0.1 | 1300 nM | (1.1 ± 0.1)× |

— PMC9023544, “Ketone-selenoesters as potential anticancer and multidrug resistance modulation agents in 2D and 3D ovarian and breast cancer in vitro models” (Scientific Reports, 2022)
